# Laboratory results published in patent publication US20060035966A1, “Irreversible selective androgen receptor modulators and methods of use thereof” (priority 2002, published 2006).
# Like-named read-outs stand apart in the source and are kept apart here.
# How the values were obtained:
# [1] = system: PC-3 bone metastatic prostate cancer cell line; assay: Cytotoxicity, SRB assay, PC-3; assay type: cell-based, human
# Experimental: PPC-1, LNCaP, TSU, PC-3, and DU145 were grown in PRMI-1640 medium containing 2 mM L-glutamine supplemented with 10% fetal bovine serum (FBS). Cells were maintained in a 5% CO2/95% air humidified atomosphere at 37° C.
# (§1) The SRB Assay was used to determine cell number during cytotoxocity experiments. The following protocol was used: • 1. Cells were detached with 0.25% trypsin. • 2. Experimental cultures were cultured in 96-well microtiter plates (200 uL growth medium per well; 1,000-200,000 cells per well). • 3. Cultures were fixed with 50 uL 50% TCA (4° C.). (see cell fixation protocol for details). • 4. Fixed cells were stained with 50 uL 0.4% (wt/vol) SRB in 1% acetic acid for 10 minutes. • 5. SRB was removed and the cultures were quickly* rinsed 5 times with 1% acetic acid to remove unbound dye.** • 6. Cultures were air-dried overnight until there is no visible moisture. • 7. The cellular protein-bound SRB was dissolved with 200 uL unbuffered Tris base (10 mM, pH 10.5) for 30 minutes on a rocking platform shaker. • 8. Absorbance was read at 540 nm. • * quickly performing rinsing process is to prevent desorption of protein-bound SRB • ** completely remove residual wash solution by sharply flicking plates over sink. Fixation of Cells Attached to the Plastic Substratum
# (§2) The following protocol was used for fixing cells: • a. 50 uL of 50% TCA (4° C.) were gently layered on the top of growth medium in each well to make a final TCA concentration of 10%. • b. Cultures were incubated at 4° C. for 1 hour. • c. Cultures were washed 5 times with tap water to remove TCA, growth medium, low-molecular-weight metabolites, and serum protein. • d. Plates were air-dried until there was no visible moisture.
# [2] = system: AR-expressing LNCaP prostate cancer cell line; assay: Cytotoxicity, SRB assay, LNCaP; assay type: cell-based, human
# Experimental: as §1, with “Cells were detached with 0.25% trypsin. • 2.” left out, “The cellular protein-bound SRB was dissolved with 200 uL unbuffered Tris base (10 mM, pH 10.5) for 30 minutes on a rocking platform shaker. • 8.” left out
# as §2
# [3] = system: DU 145 prostate cancer cell line; assay: Cytotoxicity, SRB assay, DU 145; assay type: cell-based, human
# Experimental: as §1, with “Cells were detached with 0.25% trypsin. • 2.” left out, “The cellular protein-bound SRB was dissolved with 200 uL unbuffered Tris base (10 mM, pH 10.5) for 30 minutes on a rocking platform shaker. • 8.” left out
# as §2
# [4] = system: PPC-1 prostate cancer cell line; assay: Cytotoxicity, SRB assay, PPC-1; assay type: cell-based, human
# Experimental: as §1, with “Cells were detached with 0.25% trypsin. • 2.” left out, “The cellular protein-bound SRB was dissolved with 200 uL unbuffered Tris base (10 mM, pH 10.5) for 30 minutes on a rocking platform shaker. • 8.” left out
# as §2
# [5] = system: TCCSUP bladder cancer cell line; assay: Cytotoxicity, SRB assay, TCCSUP; assay type: cell-based, human; conditions: read-out: IC50 TCCSUP
# Experimental: as §1, with “Cells were detached with 0.25% trypsin. • 2.” left out, “The cellular protein-bound SRB was dissolved with 200 uL unbuffered Tris base (10 mM, pH 10.5) for 30 minutes on a rocking platform shaker. • 8.” left out
# as §2
# [6] = system: HT-29 colorectal adenocarcinoma cell line; assay: Cytotoxicity, SRB assay, HT-29; assay type: cell-based, human
# Experimental: as §1, with “Cells were detached with 0.25% trypsin. • 2.” left out, “The cellular protein-bound SRB was dissolved with 200 uL unbuffered Tris base (10 mM, pH 10.5) for 30 minutes on a rocking platform shaker. • 8.” left out
# as §2
# [7] = system: TSU prostate cancer cell line; assay: Cytotoxicity, SRB assay, TSU; assay type: cell-based, human; conditions: read-out: IC50 TSU
# Experimental: as §1, with “Cells were detached with 0.25% trypsin. • 2.” left out, “The cellular protein-bound SRB was dissolved with 200 uL unbuffered Tris base (10 mM, pH 10.5) for 30 minutes on a rocking platform shaker. • 8.” left out
# as §2
# CV-1 control cell line = assay: Cytotoxicity, SRB assay, CV-1 control; assay type: cell-based, African green monkey
# Experimental: as §1, §2
# [8] = Homo sapiens, LNCaP, read-out: IC50 LNCaP
# [9] = Homo sapiens, DU-145, read-out: IC50 DU145
# [10] = Homo sapiens, PPC-1, read-out: IC50 PPC-1
# [11] = Homo sapiens, HT-29, read-out: IC50 HT-29
compound,measurement,setting,value
"CC(=O)O[C@H]1C(=O)[C@@]2(C)[C@H]([C@H](OC(=O)c3ccccc3)[C@]3(O)C[C@H](OC(=O)[C@H](O)[C@@H](NC(=O)c4ccccc4)c4ccccc4)C(C)=C1C3(C)C)[C@]1(OC(C)=O)CO[C@@H]1C[C@@H]2O [Taxol, reference compound]",IC50,"[1]; Homo sapiens, Table 2A, Taxol in nM, read-out: IC50 PC-3",6.3 ± 0.6 nM
same,IC50,[2]; [8],0.0019 ± 0.0003 µM
same,IC50,[3]; [9],0.0027 ± 0.0003 µM
same,IC50,[4]; [10],0.0027 ± 0.0003 µM
same,IC50,"[5]; Homo sapiens, TCC-SUP",0.0043 ± 0.0006 µM
same,IC50,[6]; [11],0.0066 ± 0.0006 µM
same,IC50,[7]; Homo sapiens,0.0024 ± 0.0008 µM
C[C@](O)(CSc1ccc(NC(=O)CCl)cc1)C(=O)Nc1ccc(C#N)c(C(F)(F)F)c1 [R-CTF-T-CA-1],IC50,"[1]; Homo sapiens, 24 h, read-out: IC50 PC-3 24 hr treatment",5800 nM
same,IC50,"[1]; Homo sapiens, 96 h, read-out: IC50 PC-3 4 day treatment",4300 nM
same,IC50,"[1]; Homo sapiens, read-out: IC50 PC-3",6100 ± 500 nM
same,IC50,"[2]; Homo sapiens, LNCaP, 24 h, read-out: IC50 LNCaP 24 hr treatment",3.5 µM
same,IC50,"[2]; Homo sapiens, LNCaP, 144 h, read-out: IC50 LNCaP 6 day treatment",1.7 µM
same,IC50,[2]; [8],1.1 ± 0.2 µM
same,IC50,[3]; [9],2.6 ± 0.1 µM
same,IC50,[4]; [10],2.5 ± 0.1 µM
same,IC50,"[5]; Homo sapiens, TCC-SUP",1.8 ± 0.2 µM
same,IC50,[6]; [11],6.4 ± 0.5 µM
same,IC50,[7]; Homo sapiens,1.5 ± 0.2 µM
same,IC50,"CV-1 control cell line; Chlorocebus sabaeus, 24 h, read-out: IC50 CV-1 24 hr treatment",6.2 ± 0.2 µM
same,IC50,"CV-1 control cell line; Chlorocebus sabaeus, 96 h, read-out: IC50 CV-1 4 day treatment",4.2 µM
same,IC50,"CV-1 control cell line; Chlorocebus sabaeus, read-out: IC50 CV-1 (Control)",2.7 ± 1 µM
"O=c1[nH]cc(F)c(=O)[nH]1 [Compound 5-FU, reference compound]",IC50,"[1]; 24 hr treatment, Example 3, read-out: IC50 PC-3 24 hr treatment",20000 to 50000 nM
same,IC50,"[1]; 4 day treatment, Example 3, read-out: IC50 PC-3 4 day treatment",10900 nM
same,IC50,"[1]; Table 2A, Example 1, read-out: IC50 PC-3",10500 ± 600 nM
same,IC50,"[2]; Table 2A, Example 1, read-out: IC50 LNCaP",4.1 ± 0.6 µM
same,IC50,"[3]; Table 2A, Example 1, read-out: IC50 DU145",4.5 ± 0.3 µM
same,IC50,"[4]; Table 2A, Example 1, read-out: IC50 PPC-1",5.1 ± 0.5 µM
same,IC50,"[5]; Table 2B, Example 1",3.6 ± 0.7 µM
same,IC50,"[6]; Table 2B, Example 1, read-out: IC50 HT-29",5.4 ± 1.1 µM
same,IC50,"[7]; Table 2A, Example 1",2.7 ± 0.6 µM
same,IC50,"CV-1 control cell line; Table 2B, Example 1, read-out: IC50 CV-1 (Control)",5.4 ± 0.3 µM
